According to patent US8951796B2, “Methods and compositions for expanding and stabilizing natural regulatory T cells” (University of Southern California, priority 2010, dated 2015):

Columns and labels:
CD4+CD25+ nTregs [1] = experiment: Th17 conversion of nTregs stimulated with anti-CD3/CD28 and IL-6 (intracellular IL-17 FACS, soluble IL-17A ELISA); format: cell-based, DBA/1 mice
Method: (§1) To activate nTregs, CD25^+ or GFP^+ cells were stimulated with anti-CD3/CD28 coated beads (1:5, one bead to five cells), rmIL-2 (100 U/ml) (R&D) with DMSO or all-trans retinoic acid (atRA, 0.05 μM) for 3 days. To generate Th17 cells, these activated nTregs were stimulated with immobilized anti-CD3 (1 μg/ml), soluble anti-CD28 (1 μg/ml), anti-IL-4 (10 μg/ml) (BD biosciences), anti-IFN-γ and IL-6 (10 ng/ml) (BD Pharmingen) for 3 days.
Because atRA was dissolved in DMSO, similar volumes of DMSO was added to the cultures to exclude the possibility that atRA has a non-specific toxic effect on T cells (FIGS. 1A and B). For the data in FIGS. 1A and B, CD4^+CD25^+ cells were stimulated with immobilized anti-CD3 (1 μg/ml), soluble anti-CD28 (1 μg/ml) and IL-6 (10 ng/ml) with or without atRA (0.05 μM). 3 days later, these cells were restimulated with PMA (0.25 μg/ml) and ionomycin (0.25 μg/ml) for 5 h and brefeldin A (5 μg/ml) for 4 h, and then collected for intracellular IL-17 and IFN-γ staining. Values indicate mean±SEM of four separate experiments and representative of these experiments
(§2) In FIG. 1C, soluble IL-17A in the culture supernatants was analyzed by an ELISA. The horizontal line indicates the levels of IL-17A in the supernatant of naïve TCR-stimulated CD4^+ cells in the presence of IL-6 and TGF-β. E, the suppressive activities of nTregs in the presence of IL-6 and/or atRA were determined by the inhibition of tritiated thymidine ([^3H]-TdR) uptake.
For the experiments in FIG. 2D, CD4^+CD25^+ cells were activated as in FIG. 2A and re-stimulated with IL-6 as for the experiments in FIG. 1A described above. Intracellular IL-17 and IFN-γ expression was determined by FACS staining. Results are representative of three independent experiments. IL-17 and IFN-γ secreted into the supernatants was consistent with intracellular cytokine expression (data not shown).

CD4+CD25+ nTregs [2] = experiment: FOXP3 expression of activated/expanded nTregs by FACS intracellular staining; format: cell-based, DBA/1 mice
Method: as §1
For the experiments in FIG. 1D, nTregs were activated with anti-CD3/CD28 coated beads in the presence of the atRA solvent (DMSO) or atRA (0.05 μM) with or without IL-6 (10 ng/ml) for 3 days and Foxp3 expression was determined and compared to freshly isolated CD4^+CD25^+ cells by FACS intracellular staining.
(§3) For the data in FIGS. 2A and B, CD4^+CD25^+ cells were stimulated with anti-CD3/CD28 coated beads (1:5), rmIL-2 (100 U/ml) with DMSO or atRA (0.05 μM) for 7 days and the FOXP3 expression (A) and total Foxp3^+ cell numbers (B) were determined.

T responder cells = experiment: Suppressor assay: inhibition of [3H]-TdR uptake of T responder cells by nTregs; format: cell-based, DBA/1 mice
Method: To measure suppressive activities, responder T cells were stimulated with soluble anti-CD3 (0.025 μg/ml) and irradiated APC (1:1), nTregs pretreated with at-RA or without atRA were added to cultures at a ratio of 1:4 (one nTreg to four responder cells). After 72-hour cultures, triplicate wells were pulsed with 1 μCi of [^3H]-TdR for the final 16 hours. Cell proliferation was determined by [^3H]-TdR incorporation using scintillation counting.
as §2
In FIG. 2F, the suppressive activities of atRA or DMSO treated nTregs in the absence or presence of IL-6 in vitro was determined by similar methods as in FIG. 1E. P values were calculated by Student's test and indicate significant differences between atRA and control treated nTregs (P<0.05).

nTregs = experiment: Expansion of nTregs with anti-CD3/28 coated beads and IL-2; format: cell-based, DBA/1 mice; settings: one week, IL-2, with atRA
Method: as §1, §3

[3] = test system: IL-6R (CD126, CD130), STAT3, ROR-γt in nTregs; experiment: IL-6 receptor expression and signaling in nTregs by flow cytometry; format: cell-based, mouse
Method: One potential mechanism by which atRA treatment stabilizes phenotype of nTregs, particularly suppressive function, may be through downregulation of the expression of IL-6R and IL-6R signaling. To investigate this potential mechanism, CD4^+CD25^+ cells were stimulated with anti-CD3/CD28 coated beads and IL-2 with or without atRA for 4 days. […] CD126 (IL-6Rα chain) expression was determined by flow cytometry. […] When atRA-treated nTregs were restimulated with IL-6, the decrease in IL-6 signaling was accompanied by a decrease of expression of ROR-γt (FIG. 4B), the crucial transcription factor required for Th17 cell differentiation. This finding is in agreement with reports that the combination of IL-2 and TGF-β has dramatic effects on both IL-6 receptor expression and signaling on nTreg cells. […] The p values indicate significant differences between DMSO treated and atRA treated nTregs (p<0.05, t test).

human nTregs = experiment: Expansion and FOXP3 expression of human nTregs from peripheral blood; format: cell-based
Excerpt: In addition to mouse nTregs, atRA also stabilized FOXP3 expression of human nTregs. nTregs were isolated from human peripheral blood and expanded with anti-CD3/28 coated beads with IL-2 in the presence or absence of atRA. […] By ten days of culture control FOXP3+ cells increased 5 fold, but atRA treated nTregs increased 20 fold.

[4] = test system: nTregs isolated from CIA mice; experiment: nTregs isolated from CIA mice: suppressive activity by proliferation of T responder cells; format: cell-based, mouse; settings: anti-CD3 1 μg/ml, IL-6 10 ng/ml, atRA 0.05 μM, 7 days
Method: For the experiments in FIG. 7A, nTregs isolated from CIA mice were stimulated with immobilized anti-CD3 (1 μg/ml) and IL-6 (10 ng/ml) with and without atRA (0.05 μM) for 7 days. Phenotypic stability was measured by FOXP3 expression and suppressive activity was determined by the proliferation of T responder cells. CMP indicates the value of T responder cells. Values in FIG. 7A indicate the mean±SEM of three independent experiments. In the experiments in FIG. 7B, nTregs from CIA mice were expanded with anti-CD3/CD28 beads (1:5) and IL-2 (100 U/ml)±atRA (0.05 μM) for 4 days. Mice with established CIA were injected intravenously with 1×10^6 atRA treated nTregs, DMSO treated nTregs or PBS (control group) (n=6/group). The mice were examined every five days after injection and the clinical scores are indicated.

IL-6 Rα mRNA, p-Stat3 = settings: cited from earlier work
[5] = anti-CD3/CD28 beads, IL-2, atRA, 4 days

For `CC1=C(/C=C/C(C)=C/C=C/C(C)=C/C(=O)O)C(C)(C)CCC1` [atRA, all-trans retinoic acid], the “activation and proliferation status of nTregs” value (CD4+CD25+ nTregs [1]; addition of atRA) was “did not affect”, the “intracellular IL-17 production” value (CD4+CD25+ nTregs [1]; atRA 0.05 μM added to cultures with IL-6 (10 ng/ml), 3 days) was “completely blocked” and the “soluble IL-17 production” value (CD4+CD25+ nTregs [1]; atRA 0.05 μM added to cultures with IL-6 (10 ng/ml), ELISA of supernatants) was “completely blocked”. The “Th17 and Th1 conversion of expanded nTregs” value (CD4+CD25+ nTregs [1]; nTregs expanded with atRA, restimulated with anti-CD3/28 beads with IL-6) was “completely resistant”, the “FOXP3 expressed by nTregs expanded with atRA” value (CD4+CD25+ nTregs [2]; atRA 0.05 μM, IL-2 100 U/ml, 7 days) was “remained stable” and the “down-regulation of FOXP3 expression in the presence of IL-6” value (CD4+CD25+ nTregs [2]; atRA 0.05 μM, IL-6 10 ng/ml, 3 days, vs DMSO cultures) was “almost completely prevented”. The “FOXP3 expression following re-stimulation with IL-6” value (CD4+CD25+ nTregs [2]; nTregs previously treated with atRA) was “maintained FOXP3 expression”, the “suppressive activity of nTregs in the presence of IL-6” value (T responder cells; atRA added to the cultures with IL-6) was “maintained the suppressive activity” and the “T cell response with atRA alone” value (T responder cells; in the presence of IL-6, in the absence of nTregs) was “did not suppress”. The “suppressive function after restimulation with IL-6” value (T responder cells; nTregs expanded in the presence of atRA, washed) was “completely intact”, the “suppressive activities of nTregs expanded with atRA” value (T responder cells; vs nTregs expanded without atRA) was “even superior” and the “expansion of nTregs” value (nTregs) was “eight-fold”. The “Stat-3 activation in nTregs” value ([3]; addition of atRA) was “significantly decreased”, the “CD126 (IL-6Rα chain) expression in activated nTregs” value [3, 5] was “markedly decreased” and the “IL-6 Rβ (CD130) expression” value [3, 5] was “significantly decreased”. The “expression of ROR-γt” value ([3]; atRA-treated nTregs restimulated with IL-6) was “decrease”, the “total number of FOXP3+ cells” value (human nTregs; human nTregs) was “significantly increased” and the “percentage of nTregs expressing FOXP3” value (human nTregs; human nTregs proliferating in culture, some cultures with IL-1 and/or IL-6) was “decreased significantly less than control nTregs”. For the same molecule, the “increase of FOXP3+ cells” value (human nTregs; human nTregs, ten days of culture) was 20 fold, the “suppressive activity of nTregs from CIA mice” value [4] was “show suppressive activity” and the “levels of p-Stat3 expression induced by IL-6 plus TGF-β” value (IL-6 Rα mRNA, p-Stat3) was “decreases”. For the same molecule, the “up-regulation of IL-6 Rα mRNA induced by TGF-β” value (IL-6 Rα mRNA, p-Stat3) was “strongly inhibits”.
